Measured values as given in PubChem BioAssay AID720614 (Broad Institute, 2013).
Inconclusive results are not listed. Activity calls are given as the source filed them. How the calls were made is not given here.

Key:
[1] = tested on: SNB19 (HRAS) caspase 3/7 apoptosis luminescence, multiple timepoints; assay: caspase 3/7 activation in SNB19 cells, mechanism study for HRAS target identification, cell-based, luminescence, several timepoints, dry powder (AID 720614)
[2] = as above; settings: SNB19 (HRAS) caspase 3/7 apoptosis luminescence, multiple timepoints; for max activity: measured here: timepoint 3 max caspase activation, stronger effect = higher value; for caspase 3/7 activation: at 35 µM (top of the series)

SMILES | caspase 3/7 activation [2] | max activity ([2]; at 16 µM) | other results
CC(C)(C)OC(=O)NCCOCCOCCOc1ccc(N(C(=O)CCl)C(C(=O)NCCc2ccccc2)c2cccs2)cc1Cl (stereo unspecified) |  |  | AC40 [1]: > 35 µM (inactive); max activity ([2]; at 0.5 µM): 18.7%
CCC(=O)N(c1ccc(OC)c(Cl)c1)C(C(=O)NCCc1ccccc1)c1cccs1 (stereo unspecified) | -10.3% (inactive) | 18.7% | 
Cc1onc(C(=O)N2CCN(C(c3ccc(Cl)cc3)c3ccc(Cl)cc3)CC2)c1[N+](=O)[O-] | 12.2% (inactive) | -17.3% | 
CO[C@H]1C[C@@H]2CC[C@@H](C)[C@@](O)(O2)C(=O)C(=O)N2CCCC[C@H]2C(=O)O[C@H]([C@H](C)C[C@@H]2CC[C@@H](O)[C@H](OC)C2)CC(=O)[C@H](C)/C=C(\C)[C@@H](O)[C@@H](OC)C(=O)[C@H](C)C[C@H](C)/C=C/C=C/C=C/1C | 2.8% (inactive) |  | AC40 ([1]; measured here: timepoint 2 caspase activation): > 35 µM; max activity ([2]; at 0.008 µM): 32%
Cc1onc(C(=O)N2CCN(C(c3ccc(Cl)cc3)c3ccc(OCCOCCOCCNC(=O)OC(C)(C)C)cc3)CC2)c1[N+](=O)[O-] (stereo unspecified) | 12.2% (inactive) |  | max activity ([2]; at 0.26 µM): 25.3%
